Tests used:
PD patients = settings: 0.125 to 1.0 mg three times per day; 12 weeks; 296 PD patients; p=0.01 vs placebo; cited from earlier work
subjects = settings: in vivo
Procedure: The study was a single center, single-blind study.
Once a subject had reached his/her first intolerable dose (FID-1), upward dose escalation was discontinued.
All other provisions of the protocol remained unchanged. Assessments were the same as those planned for the dose escalation day.
On each study day, subjects were followed up for up to 8 hours following drug administration for AEs, vital signs, ECGs. In addition, a laboratory panel was taken at screening and at the end of the study.

[1] = system: patients with a DSM-III-R diagnosis of major depression; settings: pramipexole 5.0 mg group, cited from earlier work
[2] = system: animal behavior simulating symptoms of depression; settings: high doses of pramipexole; cited from earlier work

Structure (SMILES): CCCN[C@H]1CCc2nc(N)sc2C1 [Pramipexole, (S)-6-propylamino-4,5,6,7-tetrahydro-1,3-benzothiazole-2-amine]
- BDI scores decreased by an adjusted (PD patients): 5.9 (SE 0.5)
- dose limiting toxicity (subjects): gastro-intestinal adverse events
- patients who completed the study ([1]; 8 weeks of treatment): 42.4%
- improvement at week 8 ([1]; change from baseline, no p value because of high drop-out rate): −15.00
- patients reported nausea [1]: 76%
- patients reported vomiting [1]: 39%
- patients discontinued treatment prematurely ([1]; mainly because of adverse events): 57.6%
- activity in tests of animal behavior simulating symptoms of depression [2]: active
